In patent US20250059182A1, “SOS1 INHIBITORS” (Mirati Therapeutics, Inc., priority 2021, published 2025) one finds Ki and IC50 data, which are given here for 19 molecules.

Experiment [1] deals with T1, recombinant human SOS1 polypeptide (amino acids 560-1049) (Homo sapiens, UniProt Q07889).
T1 construct: corresponding to amino acids 560-1049, expressed in E. Coli; made in house; host or cells: E. coli
T1 sequence (Q07889 560-1049): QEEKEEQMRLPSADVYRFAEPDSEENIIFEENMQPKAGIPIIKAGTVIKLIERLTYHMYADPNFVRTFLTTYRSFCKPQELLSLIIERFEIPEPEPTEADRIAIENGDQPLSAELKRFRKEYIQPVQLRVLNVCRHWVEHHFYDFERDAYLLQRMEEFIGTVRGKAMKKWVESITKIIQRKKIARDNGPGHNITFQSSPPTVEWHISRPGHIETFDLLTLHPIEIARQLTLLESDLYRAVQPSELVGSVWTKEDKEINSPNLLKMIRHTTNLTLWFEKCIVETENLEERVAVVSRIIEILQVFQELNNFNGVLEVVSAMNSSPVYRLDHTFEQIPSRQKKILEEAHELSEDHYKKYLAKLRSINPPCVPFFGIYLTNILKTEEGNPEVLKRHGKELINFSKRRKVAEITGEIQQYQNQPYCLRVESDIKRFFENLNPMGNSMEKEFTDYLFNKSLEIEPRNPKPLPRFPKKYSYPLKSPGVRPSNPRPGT
The experiment can be described thus: HTRF displacement assay: inhibition of labeled tracer binding to SOS1. The note with it: Table A, Morrison equation for competitive binding. Background: In TR-FRET formats the signal depends on donor and acceptor labels being close together.

Another experiment has as its system pERK in MKN1 cells. The experiment can be described thus: pERK inhibition, In-Cell Western (LI-COR Odyssey), MKN1 cells. The note with it: Homo sapiens, MKN-1, Table B; MKN1 or H358 cells (table does not say which); 0.5-1 hour incubation; read-out: IC50 (nM), pERK inhibition. Type of experiment: cell-based. In a few lines:
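IC50 was fitted from % pERK inhibition, calculated as the GAPDH-normalised pERK signal of each well divided by the vehicle mean. Signal was imaged at 700 and 800 nm after fixation, methanol permeabilisation and dual antibody staining. Before fixation, MKN1 cells had received compound for about 0.5–1 h at 37 °C, top concentration 10 µM, nine 3-fold dilutions.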

As for `Cc1c(C#N)cccc1[C@@H](C)Nc1nnc(C)c2cnc(N3CC4(C3)CN(C(C)C)C4)cc12` [Example 1-62, (R)-3-(1-((7-(6-isopropyl-2,6-diazaspiro[3.3]heptan-2-yl)-4-methylpyrido[3,4-d]pyridazin-1-yl)amino)ethyl)-2-methylbenzonitrile], the Ki – broadly, the dissociation constant of the complex between target and ligand, obtained from inhibition or displacement – in experiment [1] is 0.545 nM. Also, in the experiment on pERK in MKN1 cells, the half-inhibitory concentration (IC50) (commonly the midpoint of a concentration-inhibition curve) turned out to be 37.6 nM.

With `Cc1c(C#N)cccc1[C@@H](C)Nc1nnc(C)c2cnc(N3CC4(CC(N(C)C)C4)C3)cc12` [Example 1-63, (R)-3-(1-((7-(6-(dimethylamino)-2-azaspiro[3.3]heptan-2-yl)-4-methylpyrido[3,4-d]pyridazin-1-yl)amino)ethyl)-2-methylbenzonitrile], the inhibition constant (Ki) in experiment [1] is 0.664 nM. For the same molecule, the IC50 in the experiment on pERK in MKN1 cells came to 48.9 nM.

Regarding `Cc1c([C@@H](C)Nc2nnc(C)c3cnc(N(C)[C@H]4CCNC4)cc23)cccc1C(F)(F)F` [Example 1-64, N^7,4-dimethyl-N^1-((R)-1-(2-methyl-3-(trifluoromethyl)phenyl)ethyl)-N^7-((S)-pyrrolidin-3-yl)pyrido[3,4-d]pyridazine-1,7-diamine], the inhibition constant (Ki) in experiment [1] stood at 0.246 nM. Also, the half-inhibitory concentration (IC50) with pERK in MKN1 cells is 66.3 nM.

`Cc1nnc(N[C@H](C)c2cccc(C(F)(F)F)c2F)c2cc(N(C)[C@H]3CCNC3)ncc12` [Example 1-65, N^1-((R)-1-(2-fluoro-3-(trifluoromethyl)phenyl)ethyl)-N^7,4-dimethyl-N^7-((S)-pyrrolidin-3-yl)pyrido[3,4-d]pyridazine-1,7-diamine]: the inhibition constant (Ki) in experiment [1] was 0.505 nM. Further, the concentration for half-maximal inhibition (IC50) with pERK in MKN1 cells worked out at 49.7 nM.

In the case of `Cc1c([C@@H](C)Nc2nnc(C)c3cnc(N4CC5(CC(N(C)C)C5)C4)cc23)cccc1C(F)(F)F` [Example 1-66, (R)-7-(6-(dimethylamino)-2-azaspiro[3.3]heptan-2-yl)-4-methyl-N-(1-(2-methyl-3-(trifluoromethyl)phenyl)ethyl)pyrido[3,4-d]pyridazin-1-amine], the Ki in experiment [1] amounted to 0.106 nM. Also, the half-inhibitory concentration (IC50) with pERK in MKN1 cells was 32.4 nM.

Turning to `Cc1c(C#N)cccc1[C@@H](C)Nc1nnc(C)c2cnc(N3CCN(C)C(C)(C)C3)cc12` [Example 1-69, (R)-2-methyl-3-(1-((4-methyl-7-(3,3,4-trimethylpiperazin-1-yl)pyrido[3,4-d]pyridazin-1-yl)amino)ethyl)benzonitrile], the Ki in experiment [1] is 0.849 nM. Moreover, the half-maximal inhibitory concentration (IC50) in the experiment on pERK in MKN1 cells amounted to 39 nM.

For the molecule `Cc1c(C#N)cccc1[C@@H](C)Nc1nnc(C)c2cnc(N3CCN(C(C)C)CC3)cc12` [Example 1-70, (R)-3-(1-((7-(4-isopropylpiperazin-1-yl)-4-methylpyrido[3,4-d]pyridazin-1-yl)amino)ethyl)-2-methylbenzonitrile], the Ki in experiment [1] came out at 0.927 nM. For the same molecule, the concentration for half-maximal inhibition (IC50) with pERK in MKN1 cells came out at 44.2 nM.

`Cc1c(C#N)cccc1[C@@H](C)Nc1nnc(C)c2cnc(N(C)[C@H]3CCOC3)cc12` [Example 1-71, 2-methyl-3-((R)-1-((4-methyl-7-(methyl((S)-tetrahydrofuran-3-yl)amino)pyrido[3,4-d]pyridazin-1-yl)amino)ethyl)benzonitrile]: the Ki in experiment [1] was 4.69 nM. Besides, the IC50 in the experiment with pERK in MKN1 cells stood at 47.3 nM.

Take `Cc1nnc(N[C@H](C)c2cccc(C(F)(F)F)c2F)c2cc(N(C)[C@H]3CCOC3)ncc12` [Example 1-72, N^1-((R)-1-(2-fluoro-3-(trifluoromethyl)phenyl)ethyl)-N^7,4-dimethyl-N^7-((S)-tetrahydrofuran-3-yl)pyrido[3,4-d]pyridazine-1,7-diamine]: in experiment [1], the Ki came to 1.74 nM. Also, the IC50 in the experiment with pERK in MKN1 cells was determined as 118 nM.

As to `Cc1nnc(N[C@H](C)c2cccc(C(F)(F)F)c2F)c2cc(N(C)[C@@H]3CCOC3)ncc12` [Example 1-73, N^1-((R)-1-(2-fluoro-3-(trifluoromethyl)phenyl)ethyl)-N^7,4-dimethyl-N^7-((R)-tetrahydrofuran-3-yl)pyrido[3,4-d]pyridazine-1,7-diamine], the Ki in experiment [1] was 1.16 nM. Also, the IC50 in the experiment with pERK in MKN1 cells was determined as 54.8 nM.

Take `Cc1c(C#N)cccc1[C@@H](C)Nc1nnc(C)c2cnc(N(C)[C@@H]3CCOC3)cc12` [Example 1-74, 2-methyl-3-((R)-1-((4-methyl-7-(methyl((R)-tetrahydrofuran-3-yl)amino)pyrido[3,4-d]pyridazin-1-yl)amino)ethyl)benzonitrile]: the Ki in experiment [1] stood at 2.34 nM. Also, the IC50 in the experiment with pERK in MKN1 cells amounted to 39.9 nM.

Turning to `Cc1nnc(N[C@H](C)c2cccc(C(F)(F)F)c2F)c2cc(N(C)[C@@H]3CCN(C(C)C)C3)ncc12` [Example 1-76, N^1-((R)-1-(2-fluoro-3-(trifluoromethyl)phenyl)ethyl)-N^7-((R)-1-isopropylpyrrolidin-3-yl)-N^7,4-dimethylpyrido[3,4-d]pyridazine-1,7-diamine], the inhibition constant Ki in experiment [1] was 0.367 nM. Also, the IC50 with pERK in MKN1 cells is 119 nM.

In the case of `Cc1nnc(N[C@H](C)c2cccc(C(F)(F)F)c2F)c2cc(N(C)[C@H]3CCN(C(C)C)C3)ncc12` [Example 1-77, N^1-((R)-1-(2-fluoro-3-(trifluoromethyl)phenyl)ethyl)-N^7-((S)-1-isopropylpyrrolidin-3-yl)-N^7,4-dimethylpyrido[3,4-d]pyridazine-1,7-diamine], the Ki in experiment [1] turned out to be 0.647 nM. Besides, the IC50 with pERK in MKN1 cells came out at 121 nM.

As for `Cc1c(C#N)cccc1[C@@H](C)Nc1nnc(C)c2cnc(N(C)[C@H]3CCCN(C)C3)cc12` [Example 1-81, 2-methyl-3-((R)-1-((4-methyl-7-(methyl((S)-1-methylpiperidin-3-yl)amino)pyrido[3,4-d]pyridazin-1-yl)amino)ethyl)benzonitrile], the Ki in experiment [1] was found to be 0.865 nM. Besides, the IC50 with pERK in MKN1 cells is 62.4 nM.

On to `Cc1c(C#N)cccc1[C@@H](C)Nc1nnc(C)c2cnc(N(C)[C@@H]3CCCN(C)C3)cc12` [Example 1-82, 2-methyl-3-((R)-1-((4-methyl-7-(methyl((R)-1-methylpiperidin-3-yl)amino)pyrido[3,4-d]pyridazin-1-yl)amino)ethyl)benzonitrile], for which, in experiment [1], the inhibition constant (Ki) was determined as 1.16 nM. The concentration for half-maximal inhibition (IC50) in the experiment on pERK in MKN1 cells is 85.2 nM.

With `Cc1nnc(N[C@H](C)c2cccc(C(F)(F)F)c2F)c2cc(N(C)C3CCN(C)CC3)ncc12` [Example 1-83, (R)-N^1-(1-(2-fluoro-3-(trifluoromethyl)phenyl)ethyl)-N^7,4-dimethyl-N^7-(1-methylpiperidin-4-yl)pyrido[3,4-d]pyridazine-1,7-diamine], the Ki in experiment [1] stood at 0.788 nM. Also, the 50% inhibitory concentration (IC50) in the experiment with pERK in MKN1 cells came to 82.8 nM.

Take `Cc1c(C#N)cccc1[C@@H](C)Nc1nnc(C)c2cnc(N3CCS(=N)(=O)CC3)cc12` [Example 1-84, (R)-3-(1-((7-(1-imino-1-oxido-thiomorpholino)-4-methylpyrido[3,4-d]pyridazin-1-yl)amino)ethyl)-2-methylbenzonitrile]: the Ki in experiment [1] was found to be 2.34 nM. Besides, in the experiment on pERK in MKN1 cells, the concentration for half-maximal inhibition (IC50) is 2730 nM.

Consider `Cc1nnc(N[C@H](C)c2cccc(C(F)(F)F)c2F)c2cc(N(C)[C@H]3CCCN(C)C3)ncc12` [Example 1-85, N^1-((R)-1-(2-fluoro-3-(trifluoromethyl)phenyl)ethyl)-N^7,4-dimethyl-N^7-((S)-1-methylpiperidin-3-yl)pyrido[3,4-d]pyridazine-1,7-diamine], for which, in experiment [1], the Ki came out at 0.662 nM. Further, in the experiment with pERK in MKN1 cells, the half-inhibitory concentration (IC50) was determined as 185 nM.

`Cc1nnc(N[C@H](C)c2cccc(C(F)(F)F)c2F)c2cc(N3CC[C@@H](N(C)C)C3)ncc12` [Example 1-86, 7-((R)-3-(dimethylamino)pyrrolidin-1-yl)-N-((R)-1-(2-fluoro-3-(trifluoromethyl)phenyl)ethyl)-4-methylpyrido[3,4-d]pyridazin-1-amine]: in experiment [1], the inhibition constant (Ki) turned out to be 0.372 nM. In the experiment with pERK in MKN1 cells, the IC50 was 50.8 nM.
